{"source": "paper PMC6272914", "about": "“Bio-Guided Isolation of Methanol-Soluble Metabolites of Common Spruce (Picea abies) Bark by-Products and Investigation of Their Dermo-Cosmetic Properties” (Molecules, 2016)"}
{"target": "collagenase from Clostridium histolyticum", "test": "fluorogenic MMP2 substrate collagenase inhibition assay", "type": "biochemical, Hathewaya histolytica", "units": {"IC50": "µM"}}
{"smiles": "OC[C@H]1O[C@@H](Oc2cc(O)cc(/C=C/c3ccc(O)cc3)c2)[C@H](O)[C@@H](O)[C@@H]1O", "note": "[compound 6, E-piceid]", "IC50": 259}
{"smiles": "OC[C@H]1O[C@@H](Oc2cc(O)cc(/C=C/c3ccc(O)c(O)c3)c2)[C@H](O)[C@@H](O)[C@@H]1O", "note": "[compound 8, E-astringin]", "IC50": 125}
{"smiles": "O=C1c2c(O)cc(O)cc2O[C@H](c2ccc(O)c(O[C@@H]3O[C@H](CO)[C@@H](O)[C@H](O)[C@H]3O)c2)[C@H]1O", "note": "[compound 9, taxifolin-3′-O-glucoside]", "IC50": 141}
{"smiles": "CC(C)C[C@H](NP(=O)(O)O[C@@H]1O[C@@H](C)[C@H](O)[C@@H](O)[C@H]1O)C(=O)N[C@@H](Cc1c[nH]c2ccccc12)C(=O)O", "note": "[PRMD, phosphoramidon, reference compound]", "IC50": 6.9}
{"smiles": "O=C1c2c(O)cc(O)cc2O[C@H](c2ccc(O)c(O)c2)[C@H]1O", "note": "[compound 4, taxifolin]", "IC50": 193}
